How the values were obtained:
[1] = test system: cancer stem cells (CD44) in HuH-7 cells; experiment: Inhibitory effect on cancer stem cells (FCM analysis of CD44), Example 2.4; assay type: cell-based, human; conditions: comparison with IC-2
Procedure: CD44, a cancer stem cell marker, was used as an indicator to examine an inhibitory effect of each compound on cancer stem cells. The concentrations of the respective compounds were as described in FIG. 32. Each control sample used was 0.1% DMSO, a solvent for each compound. In the figures, the “‡” indicates a significant difference of p<0.01.
First, 70 to 90% confluent HuH-7 cells were harvested and seeded at 1.5×10^6 cells per 10-cm cell culture dish. After 24 h, each compound was added to the cells and the mixture was cultured at 37° C. At 48 h after the compound treatment, the cells were harvested from each culture dish. The cells were centrifuged at 1000 rpm and at 4° C. for 3 min to remove a supernatant and were then washed twice with 1 mL of 0.5% FBS/2 mM EDTA/PBS. Next, the cells were suspended in 500 μL of 5% BSA/0.5% FBS/2 mM EDTA/PBS for blocking at 4° C. for 15 min. Then, 5 μL of a mouse anti-human CD44 monoclonal antibody (156-3C11, Cell Signaling Technology Inc., Danvers, Mass.) was added to 500 μL of the cell suspension. The mixture was resuspended and subjected to a primary antibody reaction in a dark room at 4° C. for 30 min. After that, the cells were washed 3 times with 1 mL of 0.5% FBS/2 mM EDTA/PBS. Subsequently, 100 μL of Alexa Fluor 488-labeled IgG (H+L) (ab150113, Abcam Ltd., Cambridge, UK), which had been diluted 200-fold with 5% BSA/0.5% FBS/2 mM EDTA/PBS, was added and the cells were suspended. Then, a secondary antibody reaction was carried out in a dark room at 4° C. for 30 min. After that, the cells were washed 3 times with 1 mL of 0.5% FBS/2 mM EDTA/PBS. Thereafter, the cells were suspended in 500 μL of 0.5% FBS/2 mM EDTA/PBS and were made to pass through a 40 μm-mesh column (Becton, Dickinson and Company, Franklin Lakes, N.J.). A Beckman Coulter-Moflo XDP (Beckman Coulter Inc., Fullerton, Calif.) was used for analysis. Following the analysis, further analysis was conducted by adding 2 μL of 0.25 mg/mL Propidium Iodide (PI). The same experiment was repeated four times.

mesenchymal stem cell = experiment: Hepatocyte differentiation-inducing effect, summary statements on Example 4 (readout not specified); assay type: cell-based, human; conditions: low concentration
Source text: Albumin, a hepatocyte marker, was used as an indicator, and RNA was collected from cells treated with each compound. Next, a hepatocyte differentiation-inducing effect was examined by real-time RT-PCR. The concentrations of the respective compounds were as described in FIG. 35. Each control sample used was 0.1% DMSO, a solvent for each compound.
By using urea synthesis, a hepatocyte function, as an indicator, a hepatocyte differentiation-inducing effect of each compound was investigated.
The cells treated with each compound were subjected to immunofluorescence analysis of albumin, a hepatocyte marker, to investigate a hepatocyte differentiation-inducing effect. The concentrations of the respective compounds were as described in FIG. 37. Each control sample used was 0.1% DMSO, a solvent for each compound.
By using glycogen synthesis, a hepatocyte function, as an indicator, a hepatocyte differentiation-inducing effect of each compound was investigated.

unsorted HuH-7 cells = experiment: Mice subcutaneously transplanted with unsorted HuH-7 cells; assay type: in vivo; conditions: mice transplanted with unsorted HuH-7 cells instead of CD44-positive HuH-7 cells
Source text: The effect of treating malignant tumors may be evaluated by imaging, endoscopic examination, biopsy, or detection of a malignant tumor marker. In addition, the effect of treating cancer stem cells may be evaluated by imaging, endoscopic examination, biopsy, or detection of a cancer stem cell marker. In addition, the effect of treating fibrosis may be evaluated by imaging, endoscopic examination, biopsy, or detection of a fibrosis marker. […] At this time, the level of a marker after administration of a therapeutic drug may be 0.7, 0.5, 0.3, or 0.1 times the level before the administration (or of a control). […] At this time, the number of marker-positive cells after administration of the therapeutic drug may be 0.7, 0.5, 0.3, or 0.1 times the number before the administration (or of a control). Note that in Example 6 below, the therapeutic effect was evaluated using mice in which CD44-positive HuH-7 cells had been subcutaneously transplanted. The present inventors also replaced the above CD44-positive HuH-7 cells by unsorted HuH-7 cells.

[2] = test system: DLD-1 cells (colon cancer cells); experiment: Growth of colon cancer cells (Cell Counting Kit-8); assay type: cell-based; conditions: 10 or 50 μM, 48 h
Procedure: DLD-1 cells (colon cancer cells) were cultured on 10-cm cell culture dishes (TPP Techno Plastic Products AG, Trasadingen, Switzerland) by using DMEM under conditions at 5% CO2, 37° C., and 100% humidity. For passage, 70 to 90% confluent cells were washed with PBS(−), and 300 μL of 0.25% Trypsin/1 mM EDTA per 2 mL of PBS(−) was added thereto. The cells were incubated at 37° C. for 5 min and were then detached. After that, 5 mL of DMEM was used to collect the cells. The cells collected were centrifuged at 1000 rpm for 3 min to remove a supernatant. The cells were then suspended in DMEM and were split at a 1:4 ratio.
DLD-1 cells were seeded at 5×10^5 cells/well of a 96-well plate (TPP). After 24 h, the cells were treated with 0, 10, or 50 μM of IC-2. Next, 48 h after the treatment, 100 μL of 10% Cell Counting Kit-8 (DOJINDO LABORATORIES, Kumamoto) was added. The mixture was incubated at 37° C. and its absorbance (at a measurement wavelength of 450 nm/control wavelength of 600 nm) was measured by using a Sunrise Rainbow RC (Tecan Group Ltd., Mannedorf, Switzerland).

CD44high DLD-1 cells = experiment: CD44high cells in DLD-1 cells (FCM analysis); assay type: cell-based, human; conditions: 48 h, 50 μM IC-2, 0.5 or 5 μM 5-FU, compared with control
Procedure: In addition, DLD-1 cells were seeded at 1×10^6 cells/10-cm cell culture dish. After 24 h, the cells were treated with 0.5 or 5 μM of 5-FU or 50 μM of IC-2. At additional 48 h, the cells were harvested. As a primary antibody, used was a mouse anti-human CD44 antibody (Abcam Ltd., Cambridge, UK). Then, Alexa Fluor 488-labeled goat anti-mouse IgG (H+L) (Life Technologies Corp., Carlsbad, Calif.) was used. After that, a MoFlo XDP (Beckman Coulter Inc., Fullerton, Calif.) was used for analysis.

Wnt/β-catenin signal = conditions: as described in Patent Literature 1; cited from earlier work

Row | Compound | inhibitory effect on cancer stem cells compared with IC-2 [1] | hepatocyte-inducing effect at low concentration (mesenchymal stem cell) | effect of treating a malignant tumor (unsorted HuH-7 cells) | growth inhibitory effect on colon cancer cells [2] | percentage of CD44high cells (CD44high DLD-1 cells) | Wnt/β-catenin signal in a mesenchymal stem cell and differentiation into hepatocytes (Wnt/β-catenin signal)
1 | COc1ccc(COc2ccc(CNC(=O)N3CCC(=O)N4C(Cc5ccccc5)C(=O)N(Cc5cccc6ccccc56)CC34)cc2)cc1 (stereo not drawn) [IC-2-OPMB] | more potent inhibitory effect on cancer stem cells than IC-2 | exerted a hepatocyte-inducing effect |  |  |  | 
2 | O=C1C(Cc2ccccc2)N2C(=O)CCN(C(=O)NCc3ccccc3)C2CN1Cc1cccc2ccccc12 (stereo not drawn) [IC-2] |  |  | exhibits an effect of treating a malignant tumor | elicited a growth inhibitory effect | significantly reduced the percentage of CD44^high cells | inhibit a Wnt/β-catenin signal in a mesenchymal stem cell, thereby inducing differentiation of the mesenchymal stem cell into hepatocytes
